Source: patent US20240317777A1, “NOVEL MACROCYCLIC AMINOPYRAZOLE COMPOUNDS AS CDK2 INHIBITORS” (Accutar Biotechnology Inc., priority 2023, published 2024)
Where two headings read alike, the source gives them in different places. Values belong to the compound of their own block, whether it stands above or below them.

Key:
CDK1-CYCLIN B = CDK1-CYCLIN B (Homo sapiens, UniProt P06493); assay: CDK protein kinase inhibition by ADP-Glo assay, CDK1-CYCLIN B; format: biochemical; details: for IC50: read-out: CDK1-CYCLINB, IC50; for CDK2 Fold selectivity against CDK1: fold selectivity for CDK2 over CDK1, recombinant CDK kinases
Summary of the method: (§1)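 Enzyme reactions contain 1000 μM ATP and 5 mM MgCl2 in HEPES pH 7.5 with BSA, Triton X-100, DTT, orthovanadate and beta-glycerophosphate. They proceed at 22° C before ADP-Glo luminescent detection of ADP produced.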

CDK2-CYCLIN E1 = CDK2-CYCLIN E1 (Homo sapiens, UniProt P24941); assay: CDK protein kinase inhibition by ADP-Glo assay, CDK2-CYCLIN E1; format: biochemical; details: read-out: CDK2-CYCLINE, IC50
Summary of the method: as §1

CDK4-CYCLIN D1 = CDK4-CYCLIN D1 (Homo sapiens, UniProt P11802); assay: CDK protein kinase inhibition by ADP-Glo assay, CDK4-CYCLIN D1; format: biochemical; details: for IC50: read-out: CDK4-CYCLIND1, IC50; for CDK2 Fold selectivity against CDK4: fold selectivity for CDK2 over CDK4, recombinant CDK kinases
Summary of the method: as §1

CDK6-CYCLIN D3 = CDK6-CYCLIN D3 (Homo sapiens, UniProt Q00534); assay: CDK protein kinase inhibition by ADP-Glo assay, CDK6-CYCLIN D3; format: biochemical; details: for IC50: read-out: CDK6-CYCLIND3, IC50; for CDK2 Fold selectivity against CDK6: fold selectivity for CDK2 over CDK6, recombinant CDK kinases
Summary of the method: as §1

CDK9-CYCLIN T1 = CDK9-CYCLIN T1 (Homo sapiens, UniProt P50750); assay: CDK protein kinase inhibition by ADP-Glo assay, CDK9-CYCLIN T1; format: biochemical; details: for IC50: read-out: CDK9-CYCLINT1, IC50; for CDK2 Fold selectivity against CDK9: fold selectivity for CDK2 over CDK9, recombinant CDK kinases
Summary of the method: as §1

[1] = system: Phospho-Rb (Ser807/811) in OVCAR3 cells; assay: Phospho-Rb expression inhibition in OVCAR3 cells quantified by In Cell Western; format: cell-based; details: Homo sapiens, OVCAR-3, 24 hours, read-out: OVCAR-3 pRb IC50
Summary of the method: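 In-cell western: after 24 h compound exposure at 37° C, fixed OVCAR3 cells co-stained for pRb Ser807/811 (800 nm channel) and total Rb (680 nm channel), imaged by LI-COR Odyssey.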

[2] = system: CCNE1-amplified OVCAR3 cells; assay: Cell growth inhibition of CCNE1-amplified OVCAR3 cells (CellTiter-Glo); format: cell-based; details: Homo sapiens, OVCAR-3, 144 h, 6 days
Summary of the method: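 Growth read-out was CellTiter-Glo luminescence, taken after 10 min at room temperature at the end of a 6-day compound exposure at 37 °C. Compounds were diluted from DMSO stocks across various concentrations.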

CCNE1-normal SKOV3 cells = assay: Cell growth inhibition of CCNE1-normal SKOV3 cells (CellTiter-Glo); format: cell-based; details: Homo sapiens, SK-OV-3, 144 h, 6 days
Summary of the method: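 Growth was measured by CellTiter-Glo luminescence after 6 days' compound exposure at 37 °C. Cells were plated one day before dosing at 1000 per well in medium with 10% FBS, and compounds were diluted from DMSO stocks.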

[3] = Table 37, recombinant CDK kinase
[4] = Table 35, recombinant CDK kinase

Chain of CDK9-CYCLIN T1 (P50750 whole entry): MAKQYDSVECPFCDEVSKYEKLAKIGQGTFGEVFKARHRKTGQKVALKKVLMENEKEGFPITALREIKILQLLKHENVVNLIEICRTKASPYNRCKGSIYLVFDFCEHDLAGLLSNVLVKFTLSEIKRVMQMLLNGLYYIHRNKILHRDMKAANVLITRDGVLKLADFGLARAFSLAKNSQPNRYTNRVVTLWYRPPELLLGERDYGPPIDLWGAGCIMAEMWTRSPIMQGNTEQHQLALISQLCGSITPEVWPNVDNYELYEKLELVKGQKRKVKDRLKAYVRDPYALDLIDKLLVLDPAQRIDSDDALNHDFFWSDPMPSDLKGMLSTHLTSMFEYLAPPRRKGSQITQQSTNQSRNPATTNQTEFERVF
Chain of CDK9-CYCLIN T1 (O60563 whole entry partner): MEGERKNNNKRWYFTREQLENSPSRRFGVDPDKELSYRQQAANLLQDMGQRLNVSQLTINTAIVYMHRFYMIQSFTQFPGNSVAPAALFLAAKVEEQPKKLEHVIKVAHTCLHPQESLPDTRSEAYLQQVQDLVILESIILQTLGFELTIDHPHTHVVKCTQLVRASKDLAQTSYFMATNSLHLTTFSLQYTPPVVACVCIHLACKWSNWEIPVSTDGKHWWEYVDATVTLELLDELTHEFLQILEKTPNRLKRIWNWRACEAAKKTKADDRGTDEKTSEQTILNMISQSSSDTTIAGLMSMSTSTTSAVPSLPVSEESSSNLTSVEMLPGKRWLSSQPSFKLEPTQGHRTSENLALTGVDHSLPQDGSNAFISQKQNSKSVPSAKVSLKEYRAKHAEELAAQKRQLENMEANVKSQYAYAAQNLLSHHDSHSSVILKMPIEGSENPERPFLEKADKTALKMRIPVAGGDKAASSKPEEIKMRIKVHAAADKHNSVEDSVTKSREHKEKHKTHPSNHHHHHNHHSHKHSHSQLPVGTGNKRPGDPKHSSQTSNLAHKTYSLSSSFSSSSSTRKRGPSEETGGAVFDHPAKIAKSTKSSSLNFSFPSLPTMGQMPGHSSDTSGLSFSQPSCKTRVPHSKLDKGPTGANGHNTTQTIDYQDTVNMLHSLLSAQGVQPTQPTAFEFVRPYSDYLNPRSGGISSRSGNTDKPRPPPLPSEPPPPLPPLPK
Chain of CDK4-CYCLIN D1 (P11802 whole entry): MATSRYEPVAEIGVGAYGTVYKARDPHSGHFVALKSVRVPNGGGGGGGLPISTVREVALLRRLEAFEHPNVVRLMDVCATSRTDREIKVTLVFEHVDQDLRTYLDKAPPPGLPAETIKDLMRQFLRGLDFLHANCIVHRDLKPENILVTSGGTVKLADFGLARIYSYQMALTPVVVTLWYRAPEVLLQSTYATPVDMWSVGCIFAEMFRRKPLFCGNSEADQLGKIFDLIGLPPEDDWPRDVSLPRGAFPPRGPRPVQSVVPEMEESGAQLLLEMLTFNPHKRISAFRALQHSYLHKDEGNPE
Chain of CDK4-CYCLIN D1 (P24385 whole entry partner): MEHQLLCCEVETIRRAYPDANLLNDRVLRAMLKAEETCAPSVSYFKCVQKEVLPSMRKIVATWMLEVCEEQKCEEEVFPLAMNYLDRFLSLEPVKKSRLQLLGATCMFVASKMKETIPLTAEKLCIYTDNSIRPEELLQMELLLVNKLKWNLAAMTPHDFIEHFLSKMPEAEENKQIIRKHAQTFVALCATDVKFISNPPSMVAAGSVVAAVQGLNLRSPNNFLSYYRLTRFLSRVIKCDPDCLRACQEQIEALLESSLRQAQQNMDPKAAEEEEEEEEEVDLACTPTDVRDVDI
Chain of CDK6-CYCLIN D3 (Q00534 whole entry): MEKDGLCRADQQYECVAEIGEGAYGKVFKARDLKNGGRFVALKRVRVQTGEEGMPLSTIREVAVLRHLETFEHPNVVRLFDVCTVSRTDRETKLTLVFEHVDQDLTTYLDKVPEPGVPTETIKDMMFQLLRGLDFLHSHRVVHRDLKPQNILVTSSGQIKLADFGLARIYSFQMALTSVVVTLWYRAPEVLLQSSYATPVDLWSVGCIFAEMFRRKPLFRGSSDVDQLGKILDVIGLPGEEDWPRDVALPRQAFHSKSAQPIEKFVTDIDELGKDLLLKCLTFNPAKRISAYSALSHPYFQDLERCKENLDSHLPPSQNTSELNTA
Chain of CDK6-CYCLIN D3 (P30281 whole entry partner): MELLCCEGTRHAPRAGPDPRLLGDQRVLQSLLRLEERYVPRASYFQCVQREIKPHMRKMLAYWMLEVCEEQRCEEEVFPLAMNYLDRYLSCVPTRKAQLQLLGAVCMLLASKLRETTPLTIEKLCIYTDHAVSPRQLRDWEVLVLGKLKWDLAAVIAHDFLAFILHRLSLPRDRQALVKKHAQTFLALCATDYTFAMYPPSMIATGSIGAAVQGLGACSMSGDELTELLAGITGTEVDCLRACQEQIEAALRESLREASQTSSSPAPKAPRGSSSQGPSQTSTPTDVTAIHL
Chain of CDK1-CYCLIN B (P06493 whole entry): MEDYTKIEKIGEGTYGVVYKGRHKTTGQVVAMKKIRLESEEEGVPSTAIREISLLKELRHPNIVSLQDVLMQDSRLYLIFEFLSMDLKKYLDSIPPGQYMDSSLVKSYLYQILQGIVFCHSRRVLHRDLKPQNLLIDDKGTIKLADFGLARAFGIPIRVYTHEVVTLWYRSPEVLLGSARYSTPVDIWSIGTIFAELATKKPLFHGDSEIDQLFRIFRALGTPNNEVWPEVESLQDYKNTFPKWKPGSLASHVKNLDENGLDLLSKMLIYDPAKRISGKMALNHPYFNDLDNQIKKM
Chain of CDK1-CYCLIN B (P14635 whole entry partner): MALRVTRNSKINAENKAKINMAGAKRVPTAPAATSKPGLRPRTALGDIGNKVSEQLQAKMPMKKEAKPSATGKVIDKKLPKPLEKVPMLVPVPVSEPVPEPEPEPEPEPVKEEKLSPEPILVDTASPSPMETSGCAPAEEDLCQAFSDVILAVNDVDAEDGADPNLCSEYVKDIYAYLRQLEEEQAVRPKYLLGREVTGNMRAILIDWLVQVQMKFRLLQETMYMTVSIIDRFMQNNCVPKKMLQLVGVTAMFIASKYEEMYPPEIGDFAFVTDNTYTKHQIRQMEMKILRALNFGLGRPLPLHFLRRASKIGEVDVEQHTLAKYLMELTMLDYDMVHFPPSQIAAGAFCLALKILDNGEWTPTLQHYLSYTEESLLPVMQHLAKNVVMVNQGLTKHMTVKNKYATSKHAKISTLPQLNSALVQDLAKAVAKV

SMILES: C[C@@H]1CCCOc2cncc(c2)Nc2cc(n[nH]2)[C@H]2CC[C@H](C2)OC(=O)N1 [Compound 120, (1^1S,1^3R,9R,Z)-9-methyl-2^1H-5,12-dioxa-3,10-diaza-4(3,5)-pyridina-2(3,5)-pyrazola-1(1,3)-cyclopentanacyclododecaphan-11-one]
IC50 (CDK1-CYCLIN B; ADP-Glo, 1000 μM ATP, Table 13): 10 to 50 nM
CDK2 Fold selectivity, CDK1 (CDK1-CYCLIN B; CDK2 versus CDK1, Table 14): E (E, <20)
IC50 (CDK2-CYCLIN E1; ADP-Glo, 1000 μM ATP, Table 13): ≤ 10 nM
IC50 (CDK4-CYCLIN D1; ADP-Glo, 1000 μM ATP, Table 13): 50 to 100 nM
CDK2 Fold selectivity, CDK4 (CDK4-CYCLIN D1; CDK2 versus CDK4, Table 14): C (C, >50 and ≤100)
IC50 (CDK6-CYCLIN D3; ADP-Glo, 1000 μM ATP, Table 13): 10 to 50 nM
CDK2 Fold selectivity, CDK6 (CDK6-CYCLIN D3; CDK2 versus CDK6, Table 14): E (E, <20)
IC50 (CDK9-CYCLIN T1; ADP-Glo, 1000 μM ATP, Table 13): 50 to 100 nM
CDK2 Fold selectivity, CDK9 (CDK9-CYCLIN T1; CDK2 versus CDK9, Table 14): C (C, >50 and ≤100)
IC50 [1]: 2 to 10 nM
IC50 [2]: 10 to 50 nM
IC50 (CCNE1-normal SKOV3 cells): > 1250 nM

SMILES: C[C@H]1CC(F)(F)COc2cc(ccn2)Nc2[nH]nc(c2F)[C@H]2CC[C@H](C2)OC(=O)N1 [Compound 244, (1^1S,1^3R,9S,E)-2^4,7,7-trifluoro-9-methyl-2^1H-5,12-dioxa-3,10-diaza-4(4,2)-pyridina-2(3,5)-pyrazola-1(1,3)-cyclopentanacyclododecaphan-11-one]
IC50 (CDK1-CYCLIN B; [3]): 100 to 500 nM
CDK2 Fold selectivity against CDK1 (CDK1-CYCLIN B; Table 38): D (D, >20 and ≤50)
IC50 (CDK2-CYCLIN E1; [3]): ≤ 10 nM
IC50 (CDK4-CYCLIN D1; [3]): > 500 nM
CDK2 Fold selectivity against CDK4 (CDK4-CYCLIN D1; Table 38): B (B, >100 and ≤500)
IC50 (CDK6-CYCLIN D3; [3]): > 500 nM
CDK2 Fold selectivity against CDK6 (CDK6-CYCLIN D3; Table 38): B (B, >100 and ≤500)
IC50 (CDK9-CYCLIN T1; [3]): > 500 nM
CDK2 Fold selectivity against CDK9 (CDK9-CYCLIN T1; Table 38): A (A, ≥500)
IC50 [1]: 10 to 50 nM
IC50 [2]: 50 to 250 nM
IC50 (CCNE1-normal SKOV3 cells): > 1250 nM

SMILES: C[C@@H]1CCCCc2cc(ccn2)Nc2cc(n[nH]2)[C@H]2CC[C@H](C2)OC(=O)N1 [Compound 115, (1^1S,1^3R,9R,Z)-9-methyl-2^1H-12-oxa-3,10-diaza-4(4,2)-pyridina-2(3,5)-pyrazola-1(1,3)-cyclopentanacyclododecaphan-11-one]
IC50 (CDK1-CYCLIN B; ADP-Glo, 1000 μM ATP, Table 19): 50 to 100 nM
CDK2 Fold selectivity, CDK1 (CDK1-CYCLIN B; CDK2 versus CDK1, Table 20): E (E, <20)
IC50 (CDK2-CYCLIN E1; ADP-Glo, 1000 μM ATP, Table 19): 10 to 50 nM
IC50 (CDK4-CYCLIN D1; ADP-Glo, 1000 μM ATP, Table 19): 10 to 50 nM
CDK2 Fold selectivity, CDK4 (CDK4-CYCLIN D1; CDK2 versus CDK4, Table 20): E (E, <20)
IC50 (CDK6-CYCLIN D3; ADP-Glo, 1000 μM ATP, Table 19): 10 to 50 nM
CDK2 Fold selectivity, CDK6 (CDK6-CYCLIN D3; CDK2 versus CDK6, Table 20): E (E, <20)
IC50 (CDK9-CYCLIN T1; ADP-Glo, 1000 μM ATP, Table 19): 100 to 500 nM
CDK2 Fold selectivity, CDK9 (CDK9-CYCLIN T1; CDK2 versus CDK9, Table 20): E (E, <20)
IC50 [1]: 10 to 50 nM
IC50 [2]: 10 to 50 nM
IC50 (CCNE1-normal SKOV3 cells): 250 to 1250 nM

SMILES: O=C1N[C@H]2C[C@@H](CC(F)(F)c3cc(ccn3)Nc3cc(n[nH]3)[C@H]3CC[C@H](C3)O1)C2 (single isomer, unassigned) [Compound 170, (1^1S,1^3R,7^1S,7^3R,Z)-5,5-difluoro-2^1H-10-oxa-3,8-diaza-4(4,2)-pyridina-2(3,5)-pyrazola-1(1,3)-cyclopentana-7(1,3)-cyclobutanacyclodecaphan-9-one]
IC50 (CDK1-CYCLIN B; ADP-Glo, 1000 μM ATP, Table 31): ≤ 10 nM
CDK2 Fold selectivity, CDK1 (CDK1-CYCLIN B; CDK2 versus CDK1, Table 32): E (E, <20)
IC50 (CDK2-CYCLIN E1; ADP-Glo, 1000 μM ATP, Table 31): ≤ 10 nM
IC50 (CDK4-CYCLIN D1; ADP-Glo, 1000 μM ATP, Table 31): 10 to 50 nM
CDK2 Fold selectivity, CDK4 (CDK4-CYCLIN D1; CDK2 versus CDK4, Table 32): E (E, <20)
IC50 (CDK6-CYCLIN D3; ADP-Glo, 1000 μM ATP, Table 31): 10 to 50 nM
CDK2 Fold selectivity, CDK6 (CDK6-CYCLIN D3; CDK2 versus CDK6, Table 32): E (E, <20)
IC50 (CDK9-CYCLIN T1; ADP-Glo, 1000 μM ATP, Table 31): 10 to 50 nM
CDK2 Fold selectivity, CDK9 (CDK9-CYCLIN T1; CDK2 versus CDK9, Table 32): E (E, <20)
IC50 [1]: 2 to 10 nM
IC50 [2]: 2 to 10 nM
IC50 (CCNE1-normal SKOV3 cells): 50 to 250 nM

Now from value to compound, other results behind:

IC50 (CDK1-CYCLIN B; ADP-Glo, 1000 μM ATP, Table 7): 100 to 500 nM
IC50 (CDK1-CYCLIN B; ADP-Glo, 1000 μM ATP, Table 29): 100 to 500 nM
CDK2 fold selectivity over CDK1 (CDK1-CYCLIN B; CDK2 versus CDK1, Table 8): C (C, >50 and ≤100)
CDK2 Fold selectivity, CDK1 (CDK1-CYCLIN B; CDK2 versus CDK1, Table 30): E (E, <20)
IC50 (CDK2-CYCLIN E1; ADP-Glo, 1000 μM ATP, Table 7): ≤ 10 nM
IC50 (CDK2-CYCLIN E1; ADP-Glo, 1000 μM ATP, Table 29): 10 to 50 nM
IC50 (CDK4-CYCLIN D1; ADP-Glo, 1000 μM ATP, Table 7): > 500 nM
IC50 (CDK4-CYCLIN D1; ADP-Glo, 1000 μM ATP, Table 29): > 500 nM
CDK2 Fold Sensitivity, CDK4 (CDK4-CYCLIN D1; CDK2 versus CDK4, Table 8): B (B, >100 and ≤500)
CDK2 Fold selectivity, CDK4 (CDK4-CYCLIN D1; CDK2 versus CDK4, Table 30): C (C, >50 and ≤100)
IC50 (CDK6-CYCLIN D3; ADP-Glo, 1000 μM ATP, Table 7): > 500 nM
IC50 (CDK6-CYCLIN D3; ADP-Glo, 1000 μM ATP, Table 29): > 500 nM
CDK2 Fold Sensitivity, CDK6 (CDK6-CYCLIN D3; CDK2 versus CDK6, Table 8): B (B, >100 and ≤500)
CDK2 Fold selectivity, CDK6 (CDK6-CYCLIN D3; CDK2 versus CDK6, Table 30): C (C, >50 and ≤100)
IC50 (CDK9-CYCLIN T1; ADP-Glo, 1000 μM ATP, Table 7): > 500 nM
IC50 (CDK9-CYCLIN T1; ADP-Glo, 1000 μM ATP, Table 29): > 500 nM
CDK2 Fold Sensitivity, CDK9 (CDK9-CYCLIN T1; CDK2 versus CDK9, Table 8): B (B, >100 and ≤500)
CDK2 Fold selectivity, CDK9 (CDK9-CYCLIN T1; CDK2 versus CDK9, Table 30): C (C, >50 and ≤100)
IC50 [1]: 10 to 50 nM
IC50 [2]: 10 to 50 nM
SMILES: C[C@H]1CCCOc2cc(ccn2)Nc2cc([nH]n2)[C@H]2CC[C@H](C2)OC(=O)N1 [Compound 9, (1^1S,1^3R,9S,Z)-9-methyl-2^1H-5,12-dioxa-3,10-diaza-4(4,2)-pyridina-2(3,5)-pyrazola-1(1,3)-cyclopentanacyclododecaphan-11-one]
IC50 (CCNE1-normal SKOV3 cells): > 1250 nM

IC50 (CDK1-CYCLIN B; [4]): ≤ 10 nM
CDK2 Fold selectivity against CDK1 (CDK1-CYCLIN B; Table 36): E (E, <20)
IC50 (CDK2-CYCLIN E1; [4]): ≤ 10 nM
IC50 (CDK4-CYCLIN D1; [4]): 10 to 50 nM
CDK2 Fold selectivity against CDK4 (CDK4-CYCLIN D1; Table 36): E (E, <20)
IC50 (CDK6-CYCLIN D3; [4]): 10 to 50 nM
CDK2 Fold selectivity against CDK6 (CDK6-CYCLIN D3; Table 36): E (E, <20)
IC50 (CDK9-CYCLIN T1; [4]): 10 to 50 nM
CDK2 Fold selectivity against CDK9 (CDK9-CYCLIN T1; Table 36): E (E, <20)
IC50 [1]: 2 to 10 nM
IC50 [2]: 10 to 50 nM
SMILES: C[C@H]1CCCOc2cc(ccn2)Nc2cc(n[nH]2)[C@@H]2C[C@H](F)[C@@H](C2)OC(=O)N1 [Compound 225, (1^1S,1^3R,1^4S,9S,Z)-1^4-fluoro-9-methyl-2^1H-5,12-dioxa-3,10-diaza-4(4,2)-pyridina-2(3,5)-pyrazola-1(1,3)-cyclopentanacyclododecaphan-11-one]
IC50 (CCNE1-normal SKOV3 cells): 250 to 1250 nM
